Assays:
corn (Zea mays L.) = test: Test Example 1: foliar treatment, growth inhibition rate, corn; assay type: in vivo; settings: visually observed 17th to 23rd day after application
Source text: (§1) Upland field soil was put into a 1/170,000 hectare pot, and seeds of various plants were sown. When the respective plants reached predetermined leaf stage ((1) barnyardgrass (Echinochloa crus-galli L.); 0.8 to 2.5 leaf stage, (2) crabgrass (Digitaria sanguinalis L.): 0.5 to 3.0 leaf stage, (3) greenfoxtail (Setaria viridis L.): 1.0 to 3.0 leaf stage, (4) redroot pigweed (Amaranthus retroflexus L.): cotyledon stage to 2.0 leaf stage, (5) prickly sida (Sida spinosa L.): cotyledon stage to 1.1 leaf stage, (6) velvetleaf (Abutilon theophrasti MEDIC.): cotyledon stage to 1.5 leaf stage, (7) rice (Oryza sativa L.): 1.0 to 2.5 leaf stage, (8) wheat (Triticum spp.): 1.7 to 3.4 leaf stage, (9) corn (Zea mays L.): 2.0 to 3.5 leaf stage, and (10) soybean (Glycine max Merr.): primary leaf stage to 0.3 leaf stage), wettable powders or emulsifiable concentrates of the compounds of the present invention prepared in accordance with a conventional preparation method, were weighed so that the active ingredients became the prescribed amounts, and diluted with water in an amount corresponding to 500 liter per 1 hectare. 0.1 vol % of an agricultural spreader was further added to the respective diluted liquids, followed by foliar treatment with a small sprayer.
(§2) On the 17th to 23rd day after application, the state of growth of the respective plants was visually observed, and the herbicidal effect was evaluated in accordance with a growth inhibition rate (%) of 0 (equivalent to the non-treated area) to 100% (complete kill).

barnyardgrass = test: Test Example 2: soil application on the day after sowing, growth inhibition rate, barnyardgrass; assay type: in vivo, Echinochloa crus-galli L.; settings: 250 g/ha active ingredient, observed on 19th to 24th day
Source text: (§3) Upland field soil was put into a 1/170,000 hectare pot, and seeds of various plants (barnyardgrass, crabgrass, greenfoxtail, redroot pigweed, prickly sida, velvetleaf, rice, wheat, corn and soybean) were sown. On the day after sowing, wettable powders or emulsifiable concentrates of the compounds of the present invention prepared in accordance with a conventional preparation method, were weighed so that the active ingredients became the prescribed amounts, and diluted with water in an amount corresponding to 500 liter per 1 hectare, followed by soil application with a small sprayer. On the 19th to 24th day after the application, the state of growth of the respective plants was visually observed, and the herbicidal effect was evaluated in accordance with a growth inhibition rate (%) of from 0 (equivalent to the non-treated area) to 100% (complete kill).

rice (Oryza sativa L.) = test: Test Example 1: foliar treatment, growth inhibition rate, rice; assay type: in vivo; settings: visually observed 17th to 23rd day after application
Source text: as §1, §2

prickly sida = test: Test Example 2: soil application on the day after sowing, growth inhibition rate, prickly sida; assay type: in vivo, Sida spinosa L.; settings: 250 g/ha active ingredient, observed on 19th to 24th day
Source text: as §3

velvetleaf = test: Test Example 2: soil application on the day after sowing, growth inhibition rate, velvetleaf; assay type: in vivo, Abutilon theophrasti MEDIC.; settings: 250 g/ha active ingredient, observed on 19th to 24th day
Source text: as §3

corn = test: Test Example 2: soil application on the day after sowing, growth inhibition rate, corn; assay type: in vivo, Zea mays L.; settings: 250 g/ha active ingredient, observed on 19th to 24th day
Source text: as §3

greenfoxtail = test: Test Example 2: soil application on the day after sowing, growth inhibition rate, greenfoxtail; assay type: in vivo, Setaria viridis L.; settings: 250 g/ha active ingredient, observed on 19th to 24th day
Source text: as §3

rice = test: Test Example 2: soil application on the day after sowing, growth inhibition rate, rice; assay type: in vivo, Oryza sativa L.; settings: 250 g/ha active ingredient, observed on 19th to 24th day
Source text: as §3

[1] = test system: redroot pigweed (Amaranthus retroflexus L.); test: Test Example 1: foliar treatment, growth inhibition rate, redroot pigweed; assay type: in vivo; settings: visually observed 17th to 23rd day after application
Source text: as §1, §2

wheat (Triticum spp.) = test: Test Example 1: foliar treatment, growth inhibition rate, wheat; assay type: in vivo; settings: visually observed 17th to 23rd day after application
Source text: as §1, §2

[2] = test system: greenfoxtail (Setaria viridis L.); test: Test Example 1: foliar treatment, growth inhibition rate, greenfoxtail; assay type: in vivo; settings: visually observed 17th to 23rd day after application
Source text: as §1, §2

[3] = test system: soybean (Glycine max Merr.); test: Test Example 1: foliar treatment, growth inhibition rate, soybean; assay type: in vivo; settings: visually observed 17th to 23rd day after application
Source text: as §1, §2

[4] = test system: velvetleaf (Abutilon theophrasti MEDIC.); test: Test Example 1: foliar treatment, growth inhibition rate, velvetleaf; assay type: in vivo; settings: visually observed 17th to 23rd day after application
Source text: as §1, §2

crabgrass = test: Test Example 2: soil application on the day after sowing, growth inhibition rate, crabgrass; assay type: in vivo, Digitaria sanguinalis L.; settings: 250 g/ha active ingredient, observed on 19th to 24th day
Source text: as §3

[5] = test system: prickly sida (Sida spinosa L.); test: Test Example 1: foliar treatment, growth inhibition rate, prickly sida; assay type: in vivo; settings: visually observed 17th to 23rd day after application
Source text: as §1, §2

[6] = test system: crabgrass (Digitaria sanguinalis L.); test: Test Example 1: foliar treatment, growth inhibition rate, crabgrass; assay type: in vivo; settings: visually observed 17th to 23rd day after application
Source text: as §1, §2

wheat = test: Test Example 2: soil application on the day after sowing, growth inhibition rate, wheat; assay type: in vivo, Triticum spp.; settings: 250 g/ha active ingredient, observed on 19th to 24th day
Source text: as §3

[7] = test system: barnyardgrass (Echinochloa crus-galli L.); test: Test Example 1: foliar treatment, growth inhibition rate, barnyardgrass; assay type: in vivo; settings: visually observed 17th to 23rd day after application
Source text: as §1, §2

redroot pigweed = test: Test Example 2: soil application on the day after sowing, growth inhibition rate, redroot pigweed; assay type: in vivo, Amaranthus retroflexus L.; settings: 250 g/ha active ingredient, observed on 19th to 24th day
Source text: as §3

soybean = test: Test Example 2: soil application on the day after sowing, growth inhibition rate, soybean; assay type: in vivo, Glycine max Merr.; settings: 250 g/ha active ingredient, observed on 19th to 24th day
Source text: as §3

SMILES | Growth inhibition rate (%) Corn (corn (Zea mays L.); 31 g/ha active ingredient) | Growth inhibition rate (%) Barnyardgrass (barnyardgrass) | Growth inhibition rate (%) Rice (rice (Oryza sativa L.); 31 g/ha active ingredient) | Growth inhibition rate (%) Prickly sida (prickly sida) | Growth inhibition rate (%) Velvetleaf (velvetleaf) | Growth inhibition rate (%) Corn (corn) | Growth inhibition rate (%) Greenfoxtail (greenfoxtail) | Growth inhibition rate (%) Rice (rice) | Growth inhibition rate (%) redroot pigweed ([1]; 31 g/ha active ingredient) | Growth inhibition rate (%) Wheat (wheat (Triticum spp.); 31 g/ha active ingredient) | Growth inhibition rate (%) Greenfoxtail ([2]; 31 g/ha active ingredient) | Growth inhibition rate (%) Soybean ([3]; 31 g/ha active ingredient) | Growth inhibition rate (%) Velvetleaf ([4]; 31 g/ha active ingredient) | Growth inhibition rate (%) Crabgrass (crabgrass) | Growth inhibition rate (%) Prickly sida ([5]; 31 g/ha active ingredient) | Growth inhibition rate (%) Crabgrass ([6]; 31 g/ha active ingredient) | Growth inhibition rate (%) Barnyardgrass ([7]; 31 g/ha active ingredient) | Growth inhibition rate (%) redroot pigweed (redroot pigweed) | Growth inhibition rate (%) Soybean (soybean) | also measured
CCSC(=O)Oc1c(C(=O)c2ccc(S(C)(=O)=O)c(OCC3CCCCO3)c2C)cnn1C (stereo not drawn) [compound 215] | 30% | 90% | 70% | 40% | 0% | 0% | 70% | 90% | 95% | 0% | 70% | 95% | 50% | 95% | 50% | 60% | 100% | 60% | – | Growth inhibition rate (%) Wheat (wheat): 0%
CCSC(=O)Oc1c(C(=O)c2ccc(S(C)(=O)=O)c(CSC#N)c2C)cnn1C [compound 231] | – | 70% | – | 0% | 0% | 0% | 0% | 0% | – | – | – | – | – | 60% | – | – | – | 50% | 0% | Growth inhibition rate (%) Corn (corn (Zea mays L.); 63 g/ha active ingredient): 0%; Growth inhibition rate (%) Rice (rice (Oryza sativa L.); 63 g/ha active ingredient): 50%; Growth inhibition rate (%) redroot pigweed ([1]; 63 g/ha active ingredient): 80%; Growth inhibition rate (%) Wheat (wheat (Triticum spp.); 63 g/ha active ingredient): 0%; Growth inhibition rate (%) Greenfoxtail ([2]; 63 g/ha active ingredient): 40%; Growth inhibition rate (%) Soybean ([3]; 63 g/ha active ingredient): 100%; Growth inhibition rate (%) Velvetleaf ([4]; 63 g/ha active ingredient): 80%; Growth inhibition rate (%) Prickly sida ([5]; 63 g/ha active ingredient): 40%; Growth inhibition rate (%) Crabgrass ([6]; 63 g/ha active ingredient): 70%; Growth inhibition rate (%) Barnyardgrass ([7]; 63 g/ha active ingredient): 100%
CCSC(=O)Oc1c(C(=O)c2ccc(S(C)(=O)=O)c(OC(C)COC)c2C)cnn1C (stereo not drawn) [compound 236] | 0% | 98% | 80% | 30% | 0% | 0% | 10% | 70% | 90% | 0% | 40% | 95% | 70% | 95% | 40% | 50% | 60% | 100% | 0% | –
CCSC(=O)Oc1c(C(=O)c2ccc(S(C)(=O)=O)c(C(=O)OC)c2C)cnn1CC [Compound No. 2, 1-ethyl-5-(ethylthio)carbonyloxypyrazol-4-yl 3-(methoxycarbonyl)-2-methyl-4-(methylsulfonyl)phenyl ketone] | – | – | – | – | – | – | – | – | 95% | – | – | – | – | – | 95% | – | – | – | – | pest or weed control at 31 g/ha (corn (Zea mays L.); Zea mays, 31 g/ha active ingredient): 10%; inhibition at 250 g/ha (barnyardgrass; Echinochloa crus-galli): 100%; pest or weed control at 31 g/ha (rice (Oryza sativa L.); Oryza sativa, 31 g/ha active ingredient): 95%; inhibition at 250 g/ha (prickly sida; Sida spinosa): 95%; inhibition at 250 g/ha (velvetleaf; Abutilon theophrasti): 60%; inhibition at 250 g/ha (corn; Zea mays): 0%; inhibition at 250 g/ha (greenfoxtail; Setaria viridis): 98%; inhibition at 250 g/ha (rice; Oryza sativa): 100%; pest or weed control at 31 g/ha (wheat (Triticum spp.); Triticum, 31 g/ha active ingredient): 30%; pest or weed control at 31 g/ha ([2]; Setaria viridis, 31 g/ha active ingredient): 100%; pest or weed control at 31 g/ha ([4]; Abutilon theophrasti, 31 g/ha active ingredient): 95%; inhibition at 250 g/ha (crabgrass; Digitaria sanguinalis): 100%; pest or weed control at 31 g/ha ([6]; Digitaria sanguinalis, 31 g/ha active ingredient): 90%; inhibition at 250 g/ha (wheat; Triticum aestivum): 40%; pest or weed control at 31 g/ha ([7]; Echinochloa crus-galli, 31 g/ha active ingredient): 95%; inhibition at 250 g/ha (redroot pigweed; Amaranthus retroflexus): 100%

From patent US8030498B2, “Benzoylpyrazole compounds and herbicides containing them” (Ishihara Sangyo Kaisha, Ltd., priority 2005, dated 2011)
